Assay results taken from USRE38352E1, “Polymerase chain reaction assays for monitoring antiviral therapy and making therapeutic decisions in the treatment of acquired immunodeficiency syndrome” (priority 1992, dated 2003).
Where “and” joins values, the source holds several entries; their conditions need not be identical. Equal entries are not always repeated.

Tested on: plasma HIV RNA
Assay: Plasma HIV RNA copy number by cDNA gene amplification (PCR) and enzyme-linked affinity assay
Assay type: in vivo, human (HIV antibody-positive subjects)
Text: After informed consent was obtained, whole blood samples were collected by venipuncture in the presence of acid-citrate-dextrose as an anticoagulant. A single plasma sample was collected from 39 HIV antibody-positive subjects who were not receiving antiretroviral therapy at the time of collection and from 33 HIV antibody-positive subjects who were currently on and had received AZT for a minimum of 3 mo.
Two plasma samples were collected from an additional 27 subjects before and 1 month after initiation of dideoxynucleoside therapy. 18 of these subjects received 500 mg/d of AZT orally. Seven subjects received a combination of zidovudine (150-600 mg/d) and 2′,3′-dideoxyinosine (ddI) (134-500 mg/d). Two patients received 500 mg/d of ddI alone (see Table I for individual subject characteristics). Finally, nine of these subjects had two plasma samples taken 1-3 wk. before initiating antiretroviral therapy and two plasma samples taken 1 and 2 mo. after commencing therapy. Plasma was separated within 4 h. by centrifugation at 500 g for 10 min. A second centrifugation was performed on the plasma at 500 g for 30 min. to remove any cellular material. 200 μl of plasma was then mixed with 200 μl of a solution containing 5M guanidinium thiocyanate, vortexed briefly, and stored at −70° C. until further use. All samples were assayed within 3 mo. of collection. To decrease variance, all specimens to be compared from the same subject were run in the same assay.
RNA was extracted from plasma by the method described in Chomczynski et al., 1987, Ann. Biochem. 162:156-159. Briefly, 200 μl of clarified plasma to which 200 μl of 5M guanidinium thiocyanate had previously been added was extracted with phenol/chloroform and precipitated with isopropanol. The resulting pellet was then washed in 75% ethanol, dried, and brought up in diethylpyrocarbonate treated, glass distilled water.
HIV RNA was transcribed to cDNA using Moloney murine leukemia virus reverse transcriptase (Bethesda Research Laboratories, Gaithersburg, Md.) by the method described in Kawasaki, 1990, “In PCR Protocols: A Guide to Methods and Applications” pp. 21-27, M. A. Innis, D. H. Gelfand, J. J. Sninsky, and T. J. White, eds. Academic Press, Berkeley, Calif. Oligomers used for amplification included SK38, SK39, and SK19 (Kellog et al., 1990, “In PCR Protocols: A Guide to Methods and Applications,” pp. 337-348, M. A. Innis, D. H. Gelfand, J. J. Sninsky, and T. J. White, eds. Academic Press, Berkeley, Calif.). Biotinylation of SK38 and horseradish peroxidase (HRP) labeling of probe SK19 were prepared as described in Levenson et al., 1990, “In PCR Protocols: A Guide to Methods and Applications,” pp. 99-112M. S. Innis, D. H. Gelfand, J. J. Sninsky, and T. J. White, eds. Academic Press, Berkeley, Calif. Amplification of HIV cDNA was carried out as follows: to a 100-μl reaction mixture was added the cDNA, 50 pmol of primers SK38 and SDK39, […] of each dNTP, 10 mM Tris (pH 8.3), 2.5 mM MgCl2, 50 mM KCl, and 2.5 U of recombiTaq DNA polymerase (Perkin-Elmer Cetus, Norwalk, Conn.). The mixture was then overlaid with 50 μl of mineral oil. Tubes were placed in a DNA thermal cycler (Perkin-Elmer Cetus) for 30 cycles of amplification with the following program: 95° C./30 s, 55° C./30s, and 72° C./60 s for denaturation, annealing, and extension, respectively. Negative and positive controls which included both high and low copy number HIV RNA and DNA were added at each step.
To detect and quantitate PCR product, 96-well microplates (Maxisorp; Nunc, Naperville, Ill.) were coated with 100 μl of a 0.1 mg/ml solution of avidin (Sigma Chemical Co., St. Louis, Mo.) in 50 mM Na2CO3 (pH 9.6) overnight at room temperature. Wells were then washed twice with PBS. Wells were then filled with 300 μl of a blocking solution containing 5X Denhardt's solution, 1% gelatin (Sigma), […] sheared herring sperm DNA (Promega Biotec, Madison, Wis.) at least overnight at 4° C. […]

## Cc1cn([C@H]2C[C@H](N=[N+]=[N-])[C@@H](CO)O2)c(=O)[nH]c1=O [AZT, zidovudine]
14 subjects on AZT with CD4 count <200/mm^3
  mean HIV RNA copy number: 295±5 per 200 μl of plasma
19 subjects on AZT with CD4 count >200/mm^3, below level of detection
  mean HIV RNA copy number: 16±5 per 200 μl of plasma
33 subjects currently on AZT (minimum 3 mo), mean±SEM, untreated 690±360
  mean plasma HIV RNA copy number: 134±219 per 200 μl of plasma
AZT-treated subjects with <200 CD4 cells
  subjects with positive HIV RNA signal: 9 of 14
All subjects receiving AZT, untreated 32 of 39
  subjects with positive HIV RNA signal: 16 of 33
In vivo
  Post HIV RNA: 2769/437 copy number/200 μl of plasma
  Pre HIV RNA: 2769/437 copy number/200 μl of plasma
  subjects with detectable HIV RNA signal: 7 of 19
Individual patient, 1 mo after initiation, AZT 500 mg/d
  Post HIV RNA: 77 copy number/200 μl of plasma and 57 copy number/200 μl of plasma and 42 copy number/200 μl of plasma and 94/94 copy number/200 μl of plasma and 0/0 copy number/200 μl of plasma (2×) and 65 copy number/200 μl of plasma and 52 copy number/200 μl of plasma and 50 copy number/200 μl of plasma and 45 copy number/200 μl of plasma and 95/95 copy number/200 μl of plasma and 0 copy number/200 μl of plasma (3×) and 72 copy number/200 μl of plasma and 925 copy number/200 μl of plasma and 90 copy number/200 μl of plasma
Individual patient, before initiation of therapy
  Pre HIV RNA: 100 copy number/200 μl of plasma and 87 copy number/200 μl of plasma and 40 copy number/200 μl of plasma and 94/94 copy number/200 μl of plasma and 0/0 copy number/200 μl of plasma (2×) and 93 copy number/200 μl of plasma and 105 copy number/200 μl of plasma and 123 copy number/200 μl of plasma and 78 copy number/200 μl of plasma and 95/95 copy number/200 μl of plasma and 301 copy number/200 μl of plasma and 958 copy number/200 μl of plasma and 2014 copy number/200 μl of plasma and 106 copy number/200 μl of plasma and 130 copy number/200 μl of plasma and 550 copy number/200 μl of plasma
